Data: patent US10188637B2, “Granulate formulation of 5-methyl-1-phenyl-2-(1H)-pyridone and method of making the same” (HOFFMANN-LA ROCHE INC., priority 2016, dated 2019)

How the values were obtained:
[1] = test system: human mesenchymal-like cells (lung fibroblasts, skin fibroblasts, prostate stromal cells, renal mesangial cells); details: graded concentrations in cell culture media; cited from earlier work
[2] = after oral administration; cited from earlier work
[3] = Flow function coefficient (FFC) of powder blends mixed in a turbula mixer; format: physicochemical; details: powder blend
Experimental: Flow function coefficient (FFC) is a measure of powder flow. Values less than about 4 are considered poor and sub-optimal for powder processing. Values between 4-10 are considered acceptable flow values for powder processing. Flow behavior was analyzed for pure pirfenidone (without excipients) and a binary powder mixture of pirfenidone and microcrystalline cellulose mixed with either about 1% by weight silica or about 2% by weight silica, as shown in Table 3 below. The components were mixed in a turbula mixer and the different flow properties of the blends were measured.

Flow Function Coefficient (Avg.) [3]: 2.3
Flow Function Coefficient (Avg.), flow rating in words [3]: (poor flow)
Compound: Cc1ccc(=O)n(-c2ccccc2)c1 [Pirfenidone, 5-methyl-1-phenyl-2-(1H)-pyridone]
Effective levels relative to levels exerting pharmacologically toxic effects on the cells [1]: ten to twenty times lower
Observed side effects [2]: relatively mild (drowsiness, gastric nausea or photosensitivity rash)
Serious adverse reactions [2]: No serious adverse reactions have been reported
